Results from ChEMBL document CHEMBL1909046, “DrugMatrix in vitro pharmacology data”.

How the values were obtained:
[1] = target: T1, Cysteinyl leukotriene receptor 1 (Homo sapiens, UniProt Q9Y271); assay type: cell membranes, Membrane; details: cho-k1; note: in other assays of this panel Not Active means under 50% inhibition at 10 µM
T1 sequence (Q9Y271 whole entry): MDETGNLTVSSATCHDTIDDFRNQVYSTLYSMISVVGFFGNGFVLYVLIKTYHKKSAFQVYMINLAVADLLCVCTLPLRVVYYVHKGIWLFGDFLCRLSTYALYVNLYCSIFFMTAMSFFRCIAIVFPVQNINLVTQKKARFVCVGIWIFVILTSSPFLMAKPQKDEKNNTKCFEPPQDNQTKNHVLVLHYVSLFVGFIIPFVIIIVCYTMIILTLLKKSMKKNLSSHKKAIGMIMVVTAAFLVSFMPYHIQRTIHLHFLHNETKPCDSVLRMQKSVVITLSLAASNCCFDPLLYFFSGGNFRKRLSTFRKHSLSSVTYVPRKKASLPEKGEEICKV

Cathepsin G = target: T2, Cathepsin G (Homo sapiens, UniProt P08311); assay type: tissue-based; details: neutrophil;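 note: inhibition of Cathepsin G enzyme activity, tested on an AMC-conjugated peptide substrate; in other assays of this panel Not Active means under 50% inhibition at 10 µM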
T2 sequence (P08311 whole entry): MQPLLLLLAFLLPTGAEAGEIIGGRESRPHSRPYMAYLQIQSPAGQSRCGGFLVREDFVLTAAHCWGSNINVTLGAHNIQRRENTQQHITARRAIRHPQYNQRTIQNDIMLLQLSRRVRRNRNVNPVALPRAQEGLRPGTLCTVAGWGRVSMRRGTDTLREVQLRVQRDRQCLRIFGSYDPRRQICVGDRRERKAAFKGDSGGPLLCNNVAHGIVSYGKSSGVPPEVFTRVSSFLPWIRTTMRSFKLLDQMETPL

[2] = target: 5-hydroxytryptamine receptor 4 (Cavia porcellus, UniProt O70528); assay type: cell membranes, Dunkin-Hartley, Striatum, Membrane; note: in other assays of this panel Not Active means under 50% inhibition at 10 µM
5-hydroxytryptamine receptor 4, sequence (O70528 whole entry): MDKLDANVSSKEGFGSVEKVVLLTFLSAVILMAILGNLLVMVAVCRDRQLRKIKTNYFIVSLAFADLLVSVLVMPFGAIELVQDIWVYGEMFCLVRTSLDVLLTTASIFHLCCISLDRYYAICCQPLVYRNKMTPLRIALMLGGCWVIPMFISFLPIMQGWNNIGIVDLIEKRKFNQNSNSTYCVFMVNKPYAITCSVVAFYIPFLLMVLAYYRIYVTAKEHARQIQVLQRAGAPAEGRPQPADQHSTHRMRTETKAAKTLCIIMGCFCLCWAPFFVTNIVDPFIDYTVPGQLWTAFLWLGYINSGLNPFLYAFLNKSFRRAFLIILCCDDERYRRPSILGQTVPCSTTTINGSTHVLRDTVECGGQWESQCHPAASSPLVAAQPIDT

[3] = target: T3, Amine oxidase [flavin-containing] A (Homo sapiens, UniProt P21397); assay: DRUGMATRIX: Monoamine Oxidase MAO-A enzyme inhibition (substrate: Kynuramine); design: species or system BTI-TN-5B1-4; details: Not Active = under 50% inhibition at 10 µM
T3 sequence (P21397 whole entry): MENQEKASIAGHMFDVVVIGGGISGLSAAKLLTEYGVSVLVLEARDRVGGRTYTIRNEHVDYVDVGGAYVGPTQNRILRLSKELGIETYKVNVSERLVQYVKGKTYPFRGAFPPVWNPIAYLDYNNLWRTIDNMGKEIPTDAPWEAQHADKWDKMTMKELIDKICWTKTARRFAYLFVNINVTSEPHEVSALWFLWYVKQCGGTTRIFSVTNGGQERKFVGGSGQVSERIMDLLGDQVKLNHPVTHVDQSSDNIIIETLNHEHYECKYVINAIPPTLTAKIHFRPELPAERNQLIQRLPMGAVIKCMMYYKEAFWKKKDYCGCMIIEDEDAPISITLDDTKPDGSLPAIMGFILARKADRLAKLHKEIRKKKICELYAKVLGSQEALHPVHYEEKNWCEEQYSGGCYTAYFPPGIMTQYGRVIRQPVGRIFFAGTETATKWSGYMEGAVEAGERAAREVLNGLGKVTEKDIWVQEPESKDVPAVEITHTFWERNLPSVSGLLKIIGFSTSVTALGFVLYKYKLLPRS

[4] = target: Tyrosine-protein kinase Fyn (Homo sapiens, UniProt P06241); assay: biochemical; assay type: cell-based, Insect cells; details: insect cells;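 note: enzymatic inhibition of Fyn kinase activity measured with Poly(Glu:Tyr) as the phosphorylation substrate; in other assays of this panel Not Active means under 50% inhibition at 10 µM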
Tyrosine-protein kinase Fyn, sequence (P06241 whole entry): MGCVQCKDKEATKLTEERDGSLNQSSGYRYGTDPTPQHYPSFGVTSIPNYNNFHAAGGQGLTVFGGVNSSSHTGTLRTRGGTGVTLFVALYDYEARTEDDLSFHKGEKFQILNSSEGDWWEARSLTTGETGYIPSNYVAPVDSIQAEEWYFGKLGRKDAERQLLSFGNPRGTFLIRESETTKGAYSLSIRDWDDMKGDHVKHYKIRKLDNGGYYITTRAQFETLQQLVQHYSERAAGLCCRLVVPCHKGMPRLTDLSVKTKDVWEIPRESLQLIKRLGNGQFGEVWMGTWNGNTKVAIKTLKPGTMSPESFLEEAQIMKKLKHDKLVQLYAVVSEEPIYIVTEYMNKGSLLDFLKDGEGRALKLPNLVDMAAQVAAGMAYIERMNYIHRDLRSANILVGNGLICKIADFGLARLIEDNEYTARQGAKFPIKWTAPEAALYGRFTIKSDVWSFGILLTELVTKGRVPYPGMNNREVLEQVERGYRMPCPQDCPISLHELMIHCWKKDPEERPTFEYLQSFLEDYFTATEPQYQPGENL

Vasopressin V1a receptor = Vasopressin V1a receptor (Homo sapiens, UniProt P37288); assay type: cell membranes, Membrane; details: hek293; note: in other assays of this panel Not Active means under 50% inhibition at 10 µM
Vasopressin V1a receptor, sequence (P37288 whole entry): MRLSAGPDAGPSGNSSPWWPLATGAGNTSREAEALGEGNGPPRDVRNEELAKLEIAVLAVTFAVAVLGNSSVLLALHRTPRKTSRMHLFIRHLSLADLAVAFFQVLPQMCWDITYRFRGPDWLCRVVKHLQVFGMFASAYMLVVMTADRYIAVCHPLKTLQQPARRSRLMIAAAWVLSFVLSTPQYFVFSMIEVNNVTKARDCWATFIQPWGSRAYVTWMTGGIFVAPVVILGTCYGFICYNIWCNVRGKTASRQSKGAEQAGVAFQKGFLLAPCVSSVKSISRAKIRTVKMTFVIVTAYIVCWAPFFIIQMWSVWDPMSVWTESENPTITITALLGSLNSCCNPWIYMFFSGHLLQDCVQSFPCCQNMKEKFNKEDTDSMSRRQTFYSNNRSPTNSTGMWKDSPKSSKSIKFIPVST

[5] = DRUGMATRIX: GABAA, Chloride Channel, TBOB radioligand binding (ligand: [3H] TBOB); assay type: cell membranes, Rattus norvegicus, Wistar, Cerebral cortex, Membrane; details: Not Active = under 50% inhibition at 10 µM

Row | Compound | IC50 [1] | IC50 (Cathepsin G) | IC50 [2] | IC50 ([3]; bti-tn-5b1-4) | IC50 [4] | IC50 (Vasopressin V1a receptor) | IC50 [5] | Ki [5] | IC50 ([3]; read-out: IC50) [nM]
1 | CC(C)c1c(C(=O)Nc2ccccc2)c(-c2ccccc2)c(-c2ccc(F)cc2)n1CC[C@@H](O)C[C@@H](O)CC(=O)O [ATORVASTATIN] | Not Active | Not Active | Not Active | Not Active | Not Active | Not Active | Not Active | Not Active | 
2 | CC(=O)OC[C@H]1O[C@@H](n2ncc(=O)[nH]c2=O)[C@H](OC(C)=O)[C@@H]1OC(C)=O [AZARIBINE] | Not Active | Not Active | Not Active | Not Active | Not Active | Not Active | Not Active | Not Active | 
3 | C[C@H]1[C@H](NC(=O)/C(=N\OC(C)(C)C(=O)O)c2csc(N)n2)C(=O)N1S(=O)(=O)O [AZTREONAM] | Not Active | Not Active | Not Active | Not Active | Not Active | Not Active | Not Active | Not Active | 
4 | O=C(O)CCNC(=O)c1ccc(/N=N/c2ccc(O)c(C(=O)O)c2)cc1 [BALSALAZIDE] | Not Active | Not Active | Not Active | Not Active | Not Active | Not Active | Not Active | Not Active | 
5 | COc1cc(OC)c(C(=O)CCCN2CCCC2)c(OC)c1 [BUFLOMEDIL] | Not Active | Not Active | Not Active | Not Active | Not Active | Not Active | Not Active | Not Active | 
6 | Cn1c(=O)c2c(ncn2C)n(C)c1=O [CAFFEINE] | Not Active | Not Active | Not Active | Not Active | Not Active | Not Active | Not Active | Not Active | 
7 | ClC(Cl)(Cl)Cl [CARBON TETRACHLORIDE] | Not Active | Not Active | Not Active | Not Active | Not Active | Not Active | Not Active | Not Active | 
8 | CO/N=C(\C(=O)N[C@@H]1C(=O)N2C(C(=O)O)=C(COC(C)=O)CS[C@H]12)c1csc(N)n1 [CEFOTAXIME] | Not Active | Not Active | Not Active | Not Active | Not Active | Not Active | Not Active | Not Active | 
9 | CNC1=Nc2ccc(Cl)cc2C(c2ccccc2)=[N+]([O-])C1 [CHLORDIAZEPOXIDE] | Not Active | Not Active | Not Active | Not Active | Not Active | Not Active | Not Active | Not Active | 
10 | Cc1cc(O)cc(C)c1Cl [CHLOROXYLENOL] | Not Active | Not Active | Not Active |  | Not Active | Not Active | Not Active | Not Active | 1830
11 | CCCNC(=O)NS(=O)(=O)c1ccc(Cl)cc1 [CHLORPROPAMIDE] | Not Active | Not Active | Not Active | Not Active | Not Active | Not Active | Not Active | Not Active | 
12 | O=c1c(-c2ccc(O)cc2)coc2cc(O)cc(O)c12 [GENISTEIN] | Not Active | Not Active | Not Active |  | Not Active | Not Active | Not Active | Not Active | 
13 | NNCCc1ccccc1 [PHENELZINE] | Not Active | Not Active | Not Active |  | Not Active | Not Active | Not Active | Not Active | 
